Laboratory results as given in patent publication US20250295646A1, “METHODS OF USE OF T-TYPE CALCIUM CHANNEL MODULATORS” (Praxis Precision Medicines, Inc., priority 2022, published 2025).

Columns and labels:
[1] = system: adult patients with essential tremor; assay: Example 16: Patient Global Impression of Change (PGI-C); format: in vivo, human; conditions: for participants with PGI-C score minimally improved: Part A; for participants with PGI-C much improved / participants with PGI-C score reflecting no change in symptoms: Part B OLT
Excerpt: (§1) Patients were scheduled for Safety Follow-up on Day 70 (±1 day) in the clinic for the final clinical trial assessment.

[2] = system: adult patients with essential tremor; assay: Example 16: Clinical Global Impression (CGI-I, CGI-S); format: in vivo, human; conditions: for participants with CGI-I much improved / participants with CGI-I score reflecting no change in symptoms: Part B OLT
Excerpt: as §1

[3] = Part B RWD (RWAS), Day 56, n 6, change from randomization baseline
[4] = Part B RWD (RWAS), Day 70, n 5, change from randomization baseline

CC(C)(C)NC(=O)CN1CCC(CNC(=O)c2cc(F)cc(Cl)c2)CC1 [compound of formula (I), N-((1-(2-(tert-butylamino)-2-oxoethyl)piperidin-4-yl)methyl)-3-chloro-5-fluorobenzamide]
66.7%: participants with CGI-I score not changed relative to pre-dose baseline ([2]; Part A, Day 7)
33.3%: participants with PGI-C score minimally improved ([1]; Day 7) | participants with CGI-I score reflecting no change in symptoms ([2]; Day 7)
5 (41.7) n (%): PGI-C Score 3 minimally improved ([1]; Part B OLT (FAS), Day 21, n 12) | CGI-I Score 3 minimally improved ([2]; Part B OLT (FAS), Day 7, n 12) | CGI-I Score 3 minimally improved ([2]; Part B OLT (FAS), Day 21, n 12) | CGI-I Score 4 no change ([2]; Part B OLT (FAS), Day 21, n 12)
4 (33.3) n (%): CGI-I Score 4 no change ([2]; Part B OLT (FAS), Day 7, n 12)
3 (27.3) n (%): CGI-I Score 4 no change ([2]; Part B OLT (FAS), Day 42, n 11)
53.8%: participants with PGI-C score reflecting no change in symptoms ([1]; Day 7)
4 (80.0) n (%): CGI-I Score 4 no change [2, 4]
7 (53.8) n (%): PGI-C Score 4 no change ([1]; Part B OLT (FAS), Day 7, n 13)
6 (50.0) n (%): PGI-C Score 4 no change ([1]; Part B OLT (FAS), Day 21, n 12)
1 (16.7) n (%): PGI-C Score 6 much worse ([1]; Part A (FAS), Day 7, n 6) | PGI-C Score 7 very much worse [1, 3] | CGI-I Score 3 minimally improved ([2]; Part A (FAS), Day 7, n 6) | CGI-I Score 3 minimally improved [2, 3]
27.3%: participants with PGI-C much improved ([1]; Day 42) | participants with CGI-I score reflecting no change in symptoms ([2]; Day 42)
1 (20.0) n (%): CGI-I Score 5 minimally worse [2, 4]
5 (38.5) n (%): PGI-C Score 3 minimally improved ([1]; Part B OLT (FAS), Day 7, n 13)
8.3%: participants with CGI-I much improved ([2]; Day 7)
3 n (%): PGI-C Score 2 Much improved ([1]; Part B OLT (FAS), Day 42, n 11)
1 n (%): PGI-C Score 2 Much improved ([1]; Part A (FAS), Day 7, n 6) | PGI-C Score 2 Much improved ([1]; Part A (FAS), Day 14, n 6) | PGI-C Score 2 Much improved ([1]; Part B OLT (FAS), Day 7, n 13) | PGI-C Score 2 Much improved ([1]; Part B OLT (FAS), Day 21, n 12) | CGI-I Score 2 Much improved ([2]; Part A (FAS), Day 7, n 6) | CGI-I Score 2 Much improved ([2]; Part A (FAS), Day 14, n 6) | CGI-I Score 2 Much improved ([2]; Part B OLT (FAS), Day 7, n 12) | CGI-I Score 2 Much improved ([2]; Part B OLT (FAS), Day 21, n 12)
4 n (%): CGI-I Score 2 Much improved ([2]; Part B OLT (FAS), Day 42, n 11)
5 (83.3) n (%): PGI-C Score 3 minimally improved ([1]; Part A (FAS), Day 14, n 6) | CGI-I Score 3 minimally improved ([2]; Part A (FAS), Day 14, n 6) | CGI-I Score 4 no change [2, 3]
4 (66.7) n (%): CGI-I Score 4 no change ([2]; Part A (FAS), Day 7, n 6)
36.4%: participants with PGI-C score reflecting no change in symptoms ([1]; Day 42) | participants with CGI-I much improved ([2]; Day 42)
2 (33.3) n (%): PGI-C Score 3 minimally improved ([1]; Part A (FAS), Day 7, n 6) | PGI-C Score 4 no change ([1]; Part A (FAS), Day 7, n 6) | PGI-C Score 3 minimally improved [1, 3]
0 n (%): PGI-C Score 1 very much improved ([1]; Part A (FAS), Day 7, n 6) | PGI-C Score 5 minimally worse ([1]; Part A (FAS), Day 7, n 6) | PGI-C Score 7 very much worse ([1]; Part A (FAS), Day 7, n 6) | PGI-C Score 1 very much improved ([1]; Part A (FAS), Day 14, n 6) | PGI-C Score 4 no change ([1]; Part A (FAS), Day 14, n 6) | PGI-C Score 5 minimally worse ([1]; Part A (FAS), Day 14, n 6) | PGI-C Score 6 much worse ([1]; Part A (FAS), Day 14, n 6) | PGI-C Score 7 very much worse ([1]; Part A (FAS), Day 14, n 6) | PGI-C Score 1 very much improved ([1]; Part B OLT (FAS), Day 7, n 13) | PGI-C Score 5 minimally worse ([1]; Part B OLT (FAS), Day 7, n 13) | PGI-C Score 6 much worse ([1]; Part B OLT (FAS), Day 7, n 13) | PGI-C Score 7 very much worse ([1]; Part B OLT (FAS), Day 7, n 13) | PGI-C Score 1 very much improved ([1]; Part B OLT (FAS), Day 21, n 12) | PGI-C Score 5 minimally worse ([1]; Part B OLT (FAS), Day 21, n 12) | PGI-C Score 6 much worse ([1]; Part B OLT (FAS), Day 21, n 12) | PGI-C Score 7 very much worse ([1]; Part B OLT (FAS), Day 21, n 12) | PGI-C Score 1 very much improved ([1]; Part B OLT (FAS), Day 42, n 11) | PGI-C Score 5 minimally worse ([1]; Part B OLT (FAS), Day 42, n 11) | PGI-C Score 6 much worse ([1]; Part B OLT (FAS), Day 42, n 11) | PGI-C Score 7 very much worse ([1]; Part B OLT (FAS), Day 42, n 11) | PGI-C Score 1 very much improved [1, 3] | PGI-C Score 2 Much improved [1, 3] | PGI-C Score 5 minimally worse [1, 3] | PGI-C Score 6 much worse [1, 3] | CGI-I Score 0 not assessed ([2]; Part A (FAS), Day 7, n 6) | CGI-I Score 1 very much improved ([2]; Part A (FAS), Day 7, n 6) | CGI-I Score 5 minimally worse ([2]; Part A (FAS), Day 7, n 6) | CGI-I Score 6 much worse ([2]; Part A (FAS), Day 7, n 6) | CGI-I Score 7 very much worse ([2]; Part A (FAS), Day 7, n 6) | CGI-I Score 0 not assessed ([2]; Part A (FAS), Day 14, n 6) | CGI-I Score 1 very much improved ([2]; Part A (FAS), Day 14, n 6) | CGI-I Score 4 no change ([2]; Part A (FAS), Day 14, n 6) | CGI-I Score 5 minimally worse ([2]; Part A (FAS), Day 14, n 6) | CGI-I Score 6 much worse ([2]; Part A (FAS), Day 14, n 6) | CGI-I Score 7 very much worse ([2]; Part A (FAS), Day 14, n 6) | CGI-I Score 1 very much improved ([2]; Part B OLT (FAS), Day 7, n 12) | CGI-I Score 6 much worse ([2]; Part B OLT (FAS), Day 7, n 12) | CGI-I Score 7 very much worse ([2]; Part B OLT (FAS), Day 7, n 12) | CGI-I Score 0 not assessed ([2]; Part B OLT (FAS), Day 21, n 12) | CGI-I Score 5 minimally worse ([2]; Part B OLT (FAS), Day 21, n 12) | CGI-I Score 6 much worse ([2]; Part B OLT (FAS), Day 21, n 12) | CGI-I Score 7 very much worse ([2]; Part B OLT (FAS), Day 21, n 12) | CGI-I Score 0 not assessed ([2]; Part B OLT (FAS), Day 42, n 11) | CGI-I Score 1 very much improved ([2]; Part B OLT (FAS), Day 42, n 11) | CGI-I Score 5 minimally worse ([2]; Part B OLT (FAS), Day 42, n 11) | CGI-I Score 6 much worse ([2]; Part B OLT (FAS), Day 42, n 11) | CGI-I Score 7 very much worse ([2]; Part B OLT (FAS), Day 42, n 11) | CGI-I Score 0 not assessed [2, 3] | CGI-I Score 1 very much improved [2, 3] | CGI-I Score 2 Much improved [2, 3] | CGI-I Score 5 minimally worse [2, 3] | CGI-I Score 6 much worse [2, 3] | CGI-I Score 7 very much worse [2, 3] | CGI-I Score 0 not assessed [2, 4] | CGI-I Score 1 very much improved [2, 4] | CGI-I Score 2 Much improved [2, 4] | CGI-I Score 3 minimally improved [2, 4] | CGI-I Score 6 much worse [2, 4] | CGI-I Score 7 very much worse [2, 4]
16.7%: participants with CGI score much improved ([2]; Part A, Day 14)
1 (8.3) n (%): CGI-I Score 0 not assessed ([2]; Part B OLT (FAS), Day 7, n 12) | CGI-I Score 5 minimally worse ([2]; Part B OLT (FAS), Day 7, n 12) | CGI-I Score 1 very much improved ([2]; Part B OLT (FAS), Day 21, n 12)
7.7%: participants with PGI-C much improved ([1]; Day 7)
83.3%: participants with PGI-C score minimally improved ([1]; Day 14) | participants with CGI score minimally improved ([2]; Part A, Day 14)
4 (36.4) n (%): PGI-C Score 3 minimally improved ([1]; Part B OLT (FAS), Day 42, n 11) | PGI-C Score 4 no change ([1]; Part B OLT (FAS), Day 42, n 11) | CGI-I Score 3 minimally improved ([2]; Part B OLT (FAS), Day 42, n 11)
3 (50.0) n (%): PGI-C Score 4 no change [1, 3]
